Results taken from patent publication US20090233999A1, “COMPOSITIONS AND THERAPEUTIC METHODS INVOLVING ISOFLAVONES AND ANALOGUES THEREOF” (NOVOGEN RESEARCH PTY LTD, priority 1999, published 2009).

Experiments:
[1] = tested on: COX (PGE2 and TXB2 synthesis); test: LPS-induced prostanoid (PGE2, TXB2) synthesis in human monocytes; format: cell-based; details: LPS 200 ng/mL, 18 hrs, data at 10 μM
Description: Human peripheral blood monocytes were isolated from buffy coats by lymphoprep gradient separation followed by counter-current centrifugal elutriation. Test compounds were dissolved in DMSO and added to fresh monocytes to achieve concentrations of 0, 10 and 100 μM. After 30 min, lipopolysaccharide (LPS) was added to achieve a final concentration of 200 ng/mL. After incubation for 18 hrs at 37° C. in 5% CO2, supernatants were removed and PGE2 and TXB2 (the stable hydrolysis product of TXA2) production were measured by radioimmunoassay (RIA). ANOVA followed by Newman-Keuls multiple comparisons test was used to examine differences between doses and the control values.

HUVSMC = test: Proliferation of human umbilical vein smooth muscle cells; format: cell-based; details: VSMC, 120 h, 5 days
Description: Human umbilical vein smooth muscle cells (HUVSMC), tissue explants from a neonate (HRI— passage 2), were seeded into 96 well plates at 1×10^3 cells per well, and allowed to attach for 24 hours. They were then washed twice and incubated in medium without FBS for 24-48 hours to serum-starve them. Test compounds were prepared in medium without FBS and added to the plates and incubated for one hour. Medium with FBS was added to give a final concentration of 10% and the plates incubated for 5 days until the controls were just confluent. Final analogue concentration was therefore either a series from 150 μM to 1.2 μM, or single concentrations of 10 μM. The difference in absorbance between treated cells and untreated cells was calculated using the formula, test/control*100, to obtain the percentage change caused by the test compound. As well, an IC50 for each compound was calculated.

[2] = tested on: Skh:hr-1 albino mice (UV-induced skin thickening); test: Murine model of UV irradiation-induced skin oedema; format: in vivo, mouse; details: for Change in skin thickness (mean ± SD, ×0.01 mm): 0.2 ml of 20 μM topical ×3
Excerpt: Groups of 4-5 female Skh:hr-1 albino mice were irradiated with 1×3 MED (minimal erythemal dose) of solar simulated UV radiation, provided by a planar bank of 6 UVA tube (Hitachi 40W F40T 10/BL, black light) and one UVB tube (Philips TL 40W/12RS) with radiation filtered through a sheet of 0.125 mm cellulose acetate (Eastman Chemical Products, Kingport, Term, USA) to give 2.96×10-4 W/cm2 UVA and 1.59×10-5 W/cm2 UVB. The distance of the UV lamp from the irradiance table surface was approximately 20 cm and temperature was controlled with an electric fan. During irradiation, the cages were rotated below the lights to reduce the variation in radiation intensity in different positions.
Either test compound (0.2 ml of a 20 μM solution) or vehicle (propylene glycol/ethanol (EtOH)/water 1:2:1) was applied to the irradiated dorsal skin at 30 min, 2 h and 4 h post-irradiation. Dorsal skin fold measurements were made with a spring micrometer prior to and at 24 hr and 48 h post-UV exposure. The difference in skin thickness pre- and post-exposure to UVR was calculated for each mouse, and the differences examined between test compound and vehicle control were analysed using an unpaired two-tailed t test.
The data are presented in tables, as well as graphically as the mean percentage inhibition of skin fold thickness, calculated as [1−[(mean % change skin thickness of test group/mean % change skin thickness of control group)×100]].

VCAM-1 = test: TNFα-induced VCAM expression on HAECs (ELISA); format: cell-based, human; details: 10 μM
Description: Inhibition of TNFα-stimulated endothelial cell activation by compounds was assessed by measuring surface expression of cell adhesion molecules with an ELISA. Human arterial endothelial cells (HAECs) in growth medium (Cell Applications Inc.) were seeded into 96-well plates at a density of 10,000 cells per well. Plates were incubated overnight at 37° C. in a humidified incubator to allow for cells to become confluent. On the morning of the experiment, TNFα (10 μl, 2 ng/ml) was added to each well, which contained 100 μl of medium. Compounds were diluted in DMSO-containing medium (2.5% DMSO) to give a compound concentration of 100 and 300 μM. Compounds were added to wells so that final concentrations were 10 and 30 μM. DMSO-containing medium alone was added to zero concentration control wells. All samples were measured in quadruplicate (4 wells per treatment).
After incubation with compound for 4 hours, medium was removed and cells were probed with either non-specific IgG or specific mouse antibodies against VCAM, ICAM or E-selectin (BD Biosciences—0.1 μg in 100 μL buffered saline with 10% heat-inactivated human serum). Adhesion molecule expression was detected by addition of sheep anti-mouse antibody/horseradish peroxidase conjugate. Plates were allowed to stand for 30 minutes—monolayers were then washed, and sheep anti-mouse antibody/horseradish peroxidase conjugate (1:500 in 100 μL HBSS with 10% heat-inactivated human serum and 0.05% Tween 20) was added and left for 30 minutes. After further washing, 150 μL ABTS substrate (Kirkegaard and Perry Laboratories) was added to each well and allowed to develop for 15 minutes. Optical density was measured at 405 nm with an ELISA reader (Titertek Multiscan, Flow Laboratories).

[3] = 24 hrs post-irradiation, vehicle 78 ± 23
[4] = 48 hrs post-irradiation, vehicle 147 ± 37

SMILES | COX inhibitory activity (inhibition of PGE2 and TXA2 production) [1] | IC50 (HUVSMC) | Change in skin thickness (mean ± SD, ×0.01 mm) [2, 3] | Change in skin thickness (mean ± SD, ×0.01 mm) [2, 4] | TNFα-induced VCAM expression (VCAM-1) | UV-induced inflammation at 48 hrs ([2]; 48 hrs) | UV-induced inflammation at 24 hrs ([2]; 24 hrs)
Cc1c(O)ccc2c1OCC(c1cccc(O)c1)=C2 [Cpd. 14, 3′,7-Dihydroxy-8-methylisoflav-3-ene] | significant COX inhibitory activity | 64 µM | 77 ± 5.6 ×0.01 mm | 137 ± 16 ×0.01 mm | – | – | –
COc1cccc(C2=Cc3ccc(O)cc3OC2)c1 [Cpd. 16, 7-Hydroxy-3′-methoxyisoflav-3-ene] | significant COX inhibitory activity | 63 µM | 61 ± 13 ×0.01 mm | 111 ± 15 ×0.01 mm | intermediate activity | – | –
COc1ccc(C2=Cc3ccc(O)cc3OC2)cc1OC [Cpd. 18, 7-Hydroxy-3′,4′-dimethoxyisoflav-3-ene] | significant COX inhibitory activity | 140 µM | – | – | significantly inhibited | – | –
COc1ccc(C2=Cc3ccc(O)c(C)c3OC2)cc1OC [Cpd. 19, 7-Hydroxy-3′,4′-dimethoxy-8-methylisoflav-3-ene] | significant COX inhibitory activity | 34 µM | 63 ± 8.1 ×0.01 mm | 96 ± 5 ×0.01 mm | significantly inhibited | significantly inhibited | –
Oc1ccc(C2=Cc3ccc(O)c(Br)c3OC2)cc1 [Cpd. 20, 4′,7-Dihydroxy-8-bromoisoflav-3-ene] | significant COX inhibitory activity | 32 µM | 38 ± 4 ×0.01 mm | 123 ± 39 ×0.01 mm | significantly inhibited | – | significantly inhibited
Oc1ccc2c(c1)OCC(c1ccc(Br)cc1)=C2 [Cpd. 21, 4′-Bromo-7-hydroxyisoflav-3-ene] | – | 8 µM | – | – | – | – | –
